# Where a name gives a salt, the structure may show the parent alone.
# Target: T1, soluble catalytic domain fragment of human HMG reductase (Homo sapiens, UniProt P04035)
# T1 construct: composed of insoluble transmembrane segment and soluble catalytic domain; purchased Sigma-Aldrich CS 1090
# T1 sequence (P04035 340-888 limits assumed): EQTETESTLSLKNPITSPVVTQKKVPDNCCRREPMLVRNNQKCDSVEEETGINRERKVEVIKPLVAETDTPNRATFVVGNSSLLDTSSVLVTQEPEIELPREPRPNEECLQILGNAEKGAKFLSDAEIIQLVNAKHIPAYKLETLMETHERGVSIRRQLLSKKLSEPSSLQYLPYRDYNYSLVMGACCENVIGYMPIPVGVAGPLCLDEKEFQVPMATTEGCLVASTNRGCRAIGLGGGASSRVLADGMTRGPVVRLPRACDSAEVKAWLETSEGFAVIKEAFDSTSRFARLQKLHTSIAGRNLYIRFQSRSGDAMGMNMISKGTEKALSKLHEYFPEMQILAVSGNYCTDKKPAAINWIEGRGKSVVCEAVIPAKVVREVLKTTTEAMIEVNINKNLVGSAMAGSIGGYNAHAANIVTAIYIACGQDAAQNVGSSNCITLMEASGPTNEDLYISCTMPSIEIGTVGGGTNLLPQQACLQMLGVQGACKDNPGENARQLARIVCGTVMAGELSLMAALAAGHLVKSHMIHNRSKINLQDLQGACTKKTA
# Assay: HMG-Co-A reductase inhibition activity, dose-response curves (Sigma-Aldrich assay kit, absorbance at 340 nm)
# Type: biochemical
# Settings: for IC50: NADP(H) 250 μM, sub-saturating NADP(H) and coenzyme A, decrease in absorbance at 340 nm, read-out: IC50 μM error; for Hill coefficient: fit of the dose-response curve; for potency relative to pravastatin in inhibiting HMG-CO-A-reductase enzyme: fraction of the potency of pravastatin
# Source text: SigmaAldrich. […] In: catalog number CS 1090. […].com/catalog/product/[…]®ion=HR. […] Holdgate G, Ward […]. […] Louis-Flamberg […], Bryan D L, Leber J, Elliott […] et al. […], Buchanan […]. Crystal structure of the catalytic portion of human HMG-CoA reductase: insights into regulation of activity and catalysis. […] Motulsky H, Christopoulos A. Fitting Models to Biological Data Using Linear and Nonlinear Regression: A Practical Guide to Curve Fitting Oxford University Press, USA; 1 edition 2004. […] Briefly, the dose-response curves have been measured using soluble catalytic domain fragment of human HMG reductase. […] The activity was measured by following decrease in a sample's absorbance at 340 nm caused by enzymatic oxidation of NADP(H) in presence of coenzyme A. […] NADP(H) concentration in the assay mix was adjusted to 250 μM. […] Stock solutions of Na salts of EPA-statin, ALA-statin were prepared in assay buffer in concentration of 50 mM, and subsequently diluted to lower concentrations in the same buffer as needed.
smiles,measurement,value
"CC/C=C\C/C=C\C/C=C\CCCCCCC[C@@H](O)C[C@@H](O)CC(=O)O [ALA-statin, Na salt, Sodium (3R,5R,13Z,16Z,19Z)-3,5-dihydroxydocosa-13,16,19-trienoate]",IC50,25 ± 7 µM
same,Hill coefficient,1.3 ± 0.3
same,potency relative to pravastatin in inhibiting HMG-CO-A-reductase enzyme,about 1/20
"CC/C=C\C/C=C\C/C=C\C/C=C\C/C=C\CCC[C@@H](O)C[C@@H](O)CC(=O)[O-].[Na+] [EPA-statin, Na salt, Sodium (3R,5R,9Z,12Z,15Z,18Z,21Z)-3,5-dihydroxytetracosa-9,12,15,18,21-pentaenoate]",IC50,94 ± 8 µM
same,Hill coefficient,1.6 ± 0.6
same,potency relative to pravastatin in inhibiting HMG-CO-A-reductase enzyme,about 1/100

# From patent US9540307B2, “Statins of omega-3 polyunsaturated acids for treating hypercholesterolemia” (Jiva Pharma, Inc., priority 2014, dated 2017)
